Paper PMC3260308, “Substrate Specificity within a Family of Outer Membrane Carboxylate Channels” (PLoS Biology, 2012)
Like-named read-outs stand apart in the source and are kept apart here.

Experiments:
OccK1 (formerly OpdK) = target: T1, OccK1 (formerly OpdK) (Pseudomonas aeruginosa, UniProt Q9HUR5); test: competition of radiolabelled uptake in total membrane vesicles; format: biochemical; conditions: vs 0.5 uM 3H-benzoate, 5 uM unlabelled compound, 10 mM HEPES pH 7.0, 25 C, 10 min
T1 construct: pB22, N-terminal hexa-histidine tag; expressed in E. coli BL21 omp8, total membrane vesicles; purified protein for crystals
T1 sequence (Q9HUR5 28-417): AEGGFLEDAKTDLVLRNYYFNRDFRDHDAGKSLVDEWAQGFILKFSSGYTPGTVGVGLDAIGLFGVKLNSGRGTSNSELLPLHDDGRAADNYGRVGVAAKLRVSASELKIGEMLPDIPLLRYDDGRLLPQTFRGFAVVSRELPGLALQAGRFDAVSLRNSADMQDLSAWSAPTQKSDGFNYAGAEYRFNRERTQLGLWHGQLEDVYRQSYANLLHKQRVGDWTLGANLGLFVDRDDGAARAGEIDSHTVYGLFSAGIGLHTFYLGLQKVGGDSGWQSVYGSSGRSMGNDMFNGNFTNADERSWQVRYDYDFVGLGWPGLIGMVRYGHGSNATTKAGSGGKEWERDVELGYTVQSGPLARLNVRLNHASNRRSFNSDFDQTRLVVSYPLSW
From the text: competition of radiolabelled uptake in total membrane vesicles on OccK1 (formerly OpdK)

OccD3 (formerly OpdP) = target: T2, OccD3 (formerly OpdP) (Pseudomonas aeruginosa, UniProt Q9HVS0); test: radiolabelled uptake in total membrane vesicles; format: biochemical; conditions: 0.25 uM 14C-arginine, 15 min, 10 mM HEPES pH 7.0, 25 C; labelled compound
T2 construct: pB22, N-terminal hexa-histidine tag; expressed in E. coli BL21 omp8, total membrane vesicles
T2 sequence (Q9HVS0 26-484): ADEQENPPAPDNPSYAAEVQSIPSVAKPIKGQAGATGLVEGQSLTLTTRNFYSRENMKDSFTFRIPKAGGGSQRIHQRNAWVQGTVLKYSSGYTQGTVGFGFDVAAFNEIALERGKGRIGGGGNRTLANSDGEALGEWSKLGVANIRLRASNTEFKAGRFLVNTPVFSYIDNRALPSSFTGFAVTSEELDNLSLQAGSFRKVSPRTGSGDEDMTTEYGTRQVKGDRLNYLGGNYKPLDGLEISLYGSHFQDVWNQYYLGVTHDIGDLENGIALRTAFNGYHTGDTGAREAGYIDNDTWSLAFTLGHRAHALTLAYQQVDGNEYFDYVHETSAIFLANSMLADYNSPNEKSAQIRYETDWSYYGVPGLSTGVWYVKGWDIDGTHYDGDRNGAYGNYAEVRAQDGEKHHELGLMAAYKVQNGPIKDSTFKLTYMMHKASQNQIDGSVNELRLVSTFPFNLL

OccD2 (formerly OpdC) = target: T3, OccD2 (formerly OpdC) (Pseudomonas aeruginosa, UniProt Q9I6X0); test: radiolabelled uptake in total membrane vesicles; format: biochemical; conditions: 0.25 uM 14C-arginine, 15 min, 10 mM HEPES pH 7.0, 25 C; labelled compound
T3 construct: pB22, N-terminal hexa-histidine tag; expressed in E. coli BL21 omp8, total membrane vesicles
T3 sequence (Q9I6X0 23-444): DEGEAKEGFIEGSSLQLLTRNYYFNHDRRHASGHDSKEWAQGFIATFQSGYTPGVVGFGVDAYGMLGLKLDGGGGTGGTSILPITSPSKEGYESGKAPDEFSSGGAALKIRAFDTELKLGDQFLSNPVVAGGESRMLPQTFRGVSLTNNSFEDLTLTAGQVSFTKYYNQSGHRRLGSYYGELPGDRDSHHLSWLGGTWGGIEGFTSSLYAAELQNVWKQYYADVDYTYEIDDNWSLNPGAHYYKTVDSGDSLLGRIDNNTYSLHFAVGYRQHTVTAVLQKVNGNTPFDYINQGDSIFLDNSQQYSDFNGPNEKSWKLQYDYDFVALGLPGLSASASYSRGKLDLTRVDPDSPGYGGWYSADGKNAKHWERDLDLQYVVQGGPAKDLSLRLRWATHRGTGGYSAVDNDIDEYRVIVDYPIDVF

OccD1 (formerly OprD) [1] = target: T4, OccD1 (formerly OprD) (Pseudomonas aeruginosa, UniProt P32722); format: biochemical; conditions: vs 0.25 uM 14C-arginine, 2.5 uM unlabelled compound, 10 mM HEPES pH 7.0, 25 C, 15 min
T4 construct: pB22, N-terminal hexa-histidine tag kept in vesicles; expressed in porin-deficient E. coli BL21 omp8; total membrane vesicles (purified protein for liposome swelling)
From the text: competition of radiolabelled uptake in total membrane vesicles on OccD1 (formerly OprD)

OccK2 = target: T5, OccK2 (Pseudomonas aeruginosa, UniProt Q9I6P8); test: competition of radiolabelled uptake in total membrane vesicles; format: biochemical; conditions: vs 0.5 uM 3H-glucuronate, 5 uM unlabelled compound, 10 mM HEPES pH 7.0, 25 C, 10 min
T5 construct: gene PA0240; pB22, N-terminal hexa-histidine tag; expressed in E. coli BL21 omp8, total membrane vesicles
T5 sequence (Q9I6P8 25-421): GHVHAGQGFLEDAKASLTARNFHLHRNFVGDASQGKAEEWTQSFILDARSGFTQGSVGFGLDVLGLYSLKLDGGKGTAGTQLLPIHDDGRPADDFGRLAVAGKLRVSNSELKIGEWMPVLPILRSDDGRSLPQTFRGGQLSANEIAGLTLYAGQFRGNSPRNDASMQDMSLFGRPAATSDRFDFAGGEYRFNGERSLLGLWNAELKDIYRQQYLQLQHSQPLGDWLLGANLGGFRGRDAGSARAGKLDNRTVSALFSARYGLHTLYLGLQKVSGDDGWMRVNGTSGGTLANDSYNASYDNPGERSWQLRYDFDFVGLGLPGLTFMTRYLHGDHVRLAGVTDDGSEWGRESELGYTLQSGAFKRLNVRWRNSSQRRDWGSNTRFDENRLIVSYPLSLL
From the text: competition of radiolabelled uptake in total membrane vesicles on OccK2

OccK3 [2] = target: T6, OccK3 (Pseudomonas aeruginosa, UniProt Q9I202); test: competition of pyroglutamate uptake in membrane vesicles; liposome swelling; format: biochemical; conditions: 10-fold excess over radiolabelled pyroglutamate, pH 7.0; uptake confirmed by liposome swelling
T6 construct: gene opdO; pB22, N-terminal hexa-histidine tag; expressed in E. coli BL21 omp8, total membrane vesicles; purified protein for liposome swelling
T6 sequence (Q9I202 26-409): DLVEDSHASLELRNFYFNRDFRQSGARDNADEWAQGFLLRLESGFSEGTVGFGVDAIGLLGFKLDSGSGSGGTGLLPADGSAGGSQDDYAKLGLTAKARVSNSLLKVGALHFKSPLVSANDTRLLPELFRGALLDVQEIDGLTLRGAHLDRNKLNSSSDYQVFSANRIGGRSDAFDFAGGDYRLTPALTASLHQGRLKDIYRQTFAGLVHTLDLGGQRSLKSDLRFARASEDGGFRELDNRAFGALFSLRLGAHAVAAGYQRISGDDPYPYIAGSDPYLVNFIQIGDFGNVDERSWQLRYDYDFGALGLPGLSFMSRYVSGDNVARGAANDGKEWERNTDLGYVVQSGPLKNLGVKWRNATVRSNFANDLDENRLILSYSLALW

OccD1 (formerly OprD) [3] = target: T4, OccD1 (formerly OprD); test: competition of arginine uptake in membrane vesicles; liposome swelling; format: biochemical; conditions: 10-fold excess over 0.25 uM 14C-arginine, pH 7.0, 25 C; uptake confirmed by liposome swelling
OccK7 = target: T7, OccK7 (Pseudomonas aeruginosa, UniProt Q9I4U9); test: competition of benzoate uptake in membrane vesicles; format: biochemical; conditions: 10-fold excess over radiolabelled benzoate, pH 7.0
T7 construct: gene PA1025; pB22, N-terminal hexa-histidine tag; expressed in E. coli BL21 omp8, total membrane vesicles
T7 sequence (Q9I4U9 23-416): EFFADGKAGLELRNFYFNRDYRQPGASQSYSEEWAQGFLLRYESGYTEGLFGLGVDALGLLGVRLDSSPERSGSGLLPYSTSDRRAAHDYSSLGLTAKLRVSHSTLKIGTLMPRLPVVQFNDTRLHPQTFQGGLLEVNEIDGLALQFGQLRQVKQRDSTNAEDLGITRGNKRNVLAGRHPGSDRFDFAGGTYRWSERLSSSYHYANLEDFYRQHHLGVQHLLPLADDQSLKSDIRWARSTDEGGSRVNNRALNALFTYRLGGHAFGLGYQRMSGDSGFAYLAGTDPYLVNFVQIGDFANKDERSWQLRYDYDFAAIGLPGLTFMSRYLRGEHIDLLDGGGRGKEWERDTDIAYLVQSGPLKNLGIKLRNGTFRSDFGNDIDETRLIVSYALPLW

OccD1 (formerly OprD) [4] = target: T4, OccD1 (formerly OprD); test: competition of arginine uptake in membrane vesicles; format: biochemical; conditions: 10-fold excess over 0.25 uM 14C-arginine, pH 7.0, 25 C
OccK4 = target: T8, OccK4 (Pseudomonas aeruginosa, UniProt Q9HWP4); test: radiolabelled uptake in total membrane vesicles; format: biochemical; conditions: 10 uM 14C-phenylacetate, 45 min; very low specific activity; labelled compound
T8 construct: gene PA4137; pB22, N-terminal hexa-histidine tag; expressed in E. coli BL21 omp8, total membrane vesicles

OccK3 [5] = target: T6, OccK3; test: radiolabelled uptake in total membrane vesicles; format: biochemical; conditions: 0.5 uM 3H-pyroglutamate, 15 min, 10 mM HEPES pH 7.0, 25 C; labelled compound
OccD1 (P. aeruginosa) = OccD1 (P. aeruginosa) (UniProt P32722)
Sequence of OccD1 (P. aeruginosa) (P32722 24-443): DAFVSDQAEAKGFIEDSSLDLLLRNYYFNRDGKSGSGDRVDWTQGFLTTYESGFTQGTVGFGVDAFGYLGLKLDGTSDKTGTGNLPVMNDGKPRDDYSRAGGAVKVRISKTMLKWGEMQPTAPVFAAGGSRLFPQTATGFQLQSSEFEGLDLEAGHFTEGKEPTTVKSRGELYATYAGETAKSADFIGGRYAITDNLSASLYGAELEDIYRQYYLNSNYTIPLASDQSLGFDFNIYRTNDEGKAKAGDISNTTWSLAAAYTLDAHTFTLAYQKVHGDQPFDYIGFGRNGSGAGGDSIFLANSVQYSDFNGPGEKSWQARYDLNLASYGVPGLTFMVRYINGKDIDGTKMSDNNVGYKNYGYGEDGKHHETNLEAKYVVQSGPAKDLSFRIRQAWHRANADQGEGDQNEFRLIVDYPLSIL

T4 sequence (P32722 24-443): as above
T8 sequence (Q9HWP4 entry or part of it): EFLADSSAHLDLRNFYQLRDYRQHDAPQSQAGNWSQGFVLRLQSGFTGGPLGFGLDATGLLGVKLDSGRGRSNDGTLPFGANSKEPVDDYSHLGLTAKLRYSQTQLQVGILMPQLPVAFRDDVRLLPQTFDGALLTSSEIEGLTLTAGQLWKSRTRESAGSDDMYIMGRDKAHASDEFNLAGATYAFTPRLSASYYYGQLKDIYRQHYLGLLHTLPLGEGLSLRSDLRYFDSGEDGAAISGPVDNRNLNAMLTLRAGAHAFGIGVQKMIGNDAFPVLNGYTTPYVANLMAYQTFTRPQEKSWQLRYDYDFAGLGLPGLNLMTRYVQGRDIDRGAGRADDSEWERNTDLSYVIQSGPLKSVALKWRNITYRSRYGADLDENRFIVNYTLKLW

O=C(O)c1ccc([N+](=O)[O-])cc1 [4-nitrobenzoate]
OccK1 (OccK1 (formerly OpdK)): 16±3%

N=C(N)NCCC[C@H](N)C(=O)O [Arginine]
radiolabelled uptake in total membrane vesicles (OccD3 (formerly OpdP)): The efficient arginine uptake mediated by OccD3 is noteworthy
radiolabelled uptake in total membrane vesicles (OccD2 (formerly OpdC)): OccD2 and OccD3, while efficient in arginine uptake
OccD1 (OccD1 (formerly OprD) [1]; self-competition): 2±1%

N[C@@H](Cc1cnc[nH]1)C(=O)O [Histidine]
OccD1 (OccD1 (formerly OprD) [1]): 12±2%

NCCCC[C@H](N)C(=O)O [Lysine]
OccD1 (OccD1 (formerly OprD) [1]): 3±1%

NCCC[C@H](N)C(=O)O [Ornithine]
OccD1 (OccD1 (formerly OprD) [1]): 1±2%

O=C(O)c1ccccc1 [benzoate]
OccK1 (OccK1 (formerly OpdK); self-competition, error printed as '+'): 1+3
OccK2 (OccK2): 20±6%

CCCCCC(=O)O [caproate]
OccK1 (OccK1 (formerly OpdK)): 20±5%

CO/N=C(\C(=O)N[C@@H]1C(=O)N2C(C(=O)O)=C(COC(C)=O)CS[C@H]12)c1csc(N)n1 [cefotaxime]
% uptake remaining in 10-fold excess (OccK3 [2]): OccK3-mediated transport is affected only with the cephalosporin cefotaxime

O=C(O)[C@H]1OC(O)[C@H](O)[C@@H](O)[C@@H]1O (some centres unmarked) [glucuronate]
% radiolabelled uptake remaining (OccK2; self-competition): 3±3%

C[C@@H](O)[C@H]1C(=O)N2C(C(=O)O)=C(SCCN=CN)C[C@H]12 [imipenem]
% uptake remaining in 10-fold excess (OccD1 (formerly OprD) [3]): For OccD1, inhibition of arginine uptake is caused only by imipenem and meropenem

C[C@@H](O)[C@H]1C(=O)N2C(C(=O)O)=C(S[C@@H]3CN[C@H](C(=O)N(C)C)C3)[C@H](C)[C@H]12 [meropenem]
% uptake remaining in 10-fold excess (OccK7): OccK7-mediated transport is lowered very efficiently by meropenem
% uptake remaining in 10-fold excess (OccD1 (formerly OprD) [4]): For OccD1, inhibition of arginine uptake is caused only by imipenem and meropenem

O=C(O)Cc1ccccc1 [phenylacetate]
radiolabelled uptake in total membrane vesicles (OccK4): OccK4 was indeed the most efficient phenylacetate uptake channel of the proteins tested

O=C1CC[C@@H](C(=O)O)N1 [pyroglutamate]
OccK1 (OccK1 (formerly OpdK)): 15±1%
OccK2 (OccK2): 25±2%
radiolabelled uptake in total membrane vesicles (OccK3 [5]): the channel that is most efficient in pyroglutamate uptake (OccK3)

Arg-Arg dipeptide
uptake of radiolabeled arginine by OccD1 in E. coli BL21 omp8 total membrane vesicles in the presence of a 10-fold excess of the unlabeled compound, as a percentage of uptake without it (OccD1 (P. aeruginosa)): 40%
